Here are results for 7 cell lines from the supplement of paper PMC10307832.

Common to all, as to test: relative viability (nuclei count vs DMSO), 5 days (fraction); higher = more cells survive
Compound in the assay “OSI-027 + Dasatinib”: COc1cccc2cc(-c3nc([C@H]4CC[C@H](C(=O)O)CC4)n4ncnc(N)c34)[nH]c12 [OSI-027] + Cc1nc(Nc2ncc(C(=O)Nc3c(C)cccc3Cl)s2)cc(N2CCN(CCO)CC2)n1 [Dasatinib] (partner 0.075 µM)
In outline: (§1)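 The day after seeding in 1536-well plates, lung cancer cell lines were treated by pin tool with a single drug, or with a fixed anchor-drug dose together with five library-drug doses (not always all listed) in √10 steps. After 5 days, a combined fix-and-stain solution (final 0.05% Triton X-100, 1% formaldehyde, 1 ug/ml Hoechst) was added. Nuclei counted on 4× images gave relative viability as treated counts over vehicle counts, reported as the median of duplicate plates.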

Compound in the assay “Vemurafenib + Decitabine”: CCCS(=O)(=O)Nc1ccc(F)c(C(=O)c2c[nH]c3ncc(-c4ccc(Cl)cc4)cc23)c1F [Vemurafenib] + Nc1ncn([C@H]2C[C@H](O)[C@@H](CO)O2)c(=O)n1 [Decitabine] (partner 2 µM)
The procedure, abridged: as §1

Compound in the assay “Vemurafenib + Vorinostat”: CCCS(=O)(=O)Nc1ccc(F)c(C(=O)c2c[nH]c3ncc(-c4ccc(Cl)cc4)cc23)c1F [Vemurafenib] + O=C(CCCCCCC(=O)Nc1ccccc1)NO [Vorinostat] (partner 1 µM)
In outline: as §1

Compound in the assay “Alpelisib + Navitoclax”: Cc1nc(NC(=O)N2CCC[C@H]2C(N)=O)sc1-c1ccnc(C(C)(C)C(F)(F)F)c1 [Alpelisib] + CC1(C)CCC(c2ccc(Cl)cc2)=C(CN2CCN(c3ccc(C(=O)NS(=O)(=O)c4ccc(N[C@H](CCN5CCOCC5)CSc5ccccc5)c(S(=O)(=O)C(F)(F)F)c4)cc3)CC2)C1 [Navitoclax] (partner 0.5 µM)
The procedure, abridged:
as §1

For the cell line NCI-H650, the relative viability turned out to be 0.405 with OSI-027 + Dasatinib (first compound 0.01 µM); 0.464 with OSI-027 + Dasatinib (first compound 0.03162 µM); 0.336 with OSI-027 + Dasatinib (first compound 0.1 µM); 0.347 with OSI-027 + Dasatinib (first compound 0.3162 µM); 0.311 with OSI-027 + Dasatinib (first compound 1 µM); 0.311 with Vemurafenib + Decitabine (first compound 0.03162 µM). Besides, the relative viability with Vemurafenib + Decitabine (first compound 0.1 µM) was determined as 0.334; in the assay with Vemurafenib + Decitabine (first compound 0.3162 µM) it was 0.308; in the assay with Vemurafenib + Decitabine (first compound 1 µM), 0.33; with Vemurafenib + Vorinostat (first compound 0.03162 µM), 0.413; in the assay with Vemurafenib + Vorinostat (first compound 0.1 µM), 0.384; in the assay with Vemurafenib + Vorinostat (first compound 0.3162 µM), 0.263. Further, the relative viability with Vemurafenib + Vorinostat (first compound 1 µM) came to 0.296.

NCI-H1563: the relative viability was 0.444 with OSI-027 + Dasatinib (first compound 0.01 µM); 0.467 with OSI-027 + Dasatinib (first compound 0.03162 µM); 0.447 with OSI-027 + Dasatinib (first compound 0.1 µM); 0.457 with OSI-027 + Dasatinib (first compound 0.3162 µM); 0.454 with OSI-027 + Dasatinib (first compound 1 µM).

Turning to NCI-H1792, the relative viability turned out to be 0.619 with Alpelisib + Navitoclax (first compound 0.04 µM); 0.582 in the assay with Alpelisib + Navitoclax (first compound 0.1265 µM); 0.702 in the assay with Alpelisib + Navitoclax (first compound 0.4 µM); 0.514 in the assay with Alpelisib + Navitoclax (first compound 1.265 µM); 0.336 in the assay with Alpelisib + Navitoclax (first compound 4 µM); 0.664 with OSI-027 + Dasatinib (first compound 0.01 µM). The relative viability with OSI-027 + Dasatinib (first compound 0.03162 µM) worked out at 0.617; with OSI-027 + Dasatinib (first compound 0.1 µM), 0.818; with OSI-027 + Dasatinib (first compound 0.3162 µM), 0.7; with OSI-027 + Dasatinib (first compound 1 µM) it was 0.211; in the assay with Vemurafenib + Decitabine (first compound 0.03162 µM), 0.539; in the assay with Vemurafenib + Decitabine (first compound 0.1 µM) it was 0.564. Besides, the relative viability in the assay with Vemurafenib + Decitabine (first compound 1 µM) stood at 0.477.

On to NCI-H522, for which the relative viability was found to be 0.963 with OSI-027 + Dasatinib (first compound 0.01 µM); 0.944 with OSI-027 + Dasatinib (first compound 0.03162 µM); 0.723 with OSI-027 + Dasatinib (first compound 0.1 µM); 0.629 with OSI-027 + Dasatinib (first compound 0.3162 µM); 0.736 with OSI-027 + Dasatinib (first compound 1 µM); 0.668 with Vemurafenib + Decitabine (first compound 0.03162 µM). Further, the relative viability came out at 0.607 with Vemurafenib + Decitabine (first compound 0.1 µM); 0.624 with Vemurafenib + Decitabine (first compound 0.3162 µM); 0.692 with Vemurafenib + Decitabine (first compound 1 µM); 0.901 with Vemurafenib + Vorinostat (first compound 0.03162 µM); 0.846 with Vemurafenib + Vorinostat (first compound 0.1 µM); 0.835 in the assay with Vemurafenib + Vorinostat (first compound 0.3162 µM). Further, the relative viability in the assay with Vemurafenib + Vorinostat (first compound 1 µM) turned out to be 0.714.

With CAL-12T, the relative viability in the assay with Alpelisib + Navitoclax (first compound 0.04 µM) came to 1.35; with Alpelisib + Navitoclax (first compound 0.1265 µM), 1.29; in the assay with Alpelisib + Navitoclax (first compound 0.4 µM) it was 1.22; in the assay with Alpelisib + Navitoclax (first compound 1.265 µM), 1.16; with Alpelisib + Navitoclax (first compound 4 µM) it was 1.47; with OSI-027 + Dasatinib (first compound 0.01 µM), 0.4. Besides, the relative viability with OSI-027 + Dasatinib (first compound 0.03162 µM) amounted to 0.376; with OSI-027 + Dasatinib (first compound 0.1 µM) it was 0.367; with OSI-027 + Dasatinib (first compound 0.3162 µM), 0.36; in the assay with OSI-027 + Dasatinib (first compound 1 µM), 0.148; with Vemurafenib + Vorinostat (first compound 0.03162 µM), 0.673; in the assay with Vemurafenib + Vorinostat (first compound 0.1 µM), 0.698. The figures for the relative viability with Vemurafenib + Vorinostat (first compound 0.3162 µM) and in the assay with Vemurafenib + Vorinostat (first compound 1 µM) were 1.04 and 0.875, respectively.

Consider NCI-H1623, for which the relative viability stood at 0.52 in the assay with OSI-027 + Dasatinib (first compound 0.01 µM); 0.607 with OSI-027 + Dasatinib (first compound 0.03162 µM); 0.455 with OSI-027 + Dasatinib (first compound 0.1 µM); 0.365 in the assay with OSI-027 + Dasatinib (first compound 0.3162 µM); 0.275 with OSI-027 + Dasatinib (first compound 1 µM).

For the cell line ABC-1, the relative viability with OSI-027 + Dasatinib (first compound 0.01 µM) was determined as 0.656; in the assay with OSI-027 + Dasatinib (first compound 0.03162 µM), 0.516; with OSI-027 + Dasatinib (first compound 0.1 µM) it was 0.384; in the assay with OSI-027 + Dasatinib (first compound 0.3162 µM), 0.486; with OSI-027 + Dasatinib (first compound 1 µM), 0.216; in the assay with Vemurafenib + Decitabine (first compound 0.03162 µM), 1.01. In addition, the relative viability was found to be 1.13 with Vemurafenib + Decitabine (first compound 0.1 µM); 0.967 with Vemurafenib + Decitabine (first compound 0.3162 µM); 0.977 in the assay with Vemurafenib + Decitabine (first compound 1 µM); 1.06 with Vemurafenib + Vorinostat (first compound 0.03162 µM); 0.972 in the assay with Vemurafenib + Vorinostat (first compound 0.1 µM); 0.831 with Vemurafenib + Vorinostat (first compound 0.3162 µM). Also, the relative viability with Vemurafenib + Vorinostat (first compound 1 µM) worked out at 1.45.
